Columns and labels:
STAT6 = biological target: T1, STAT6 (Homo sapiens, UniProt P42226); test: Stat6 Degrader Assay (HiBiT based, HeLa LgBiT clone 4.14); format: cell-based; conditions: HeLa LgBiT clone 4.14 HiBiT-STAT6, 4-24 h incubation; values given for compounds with >80% Emax; geometric mean; read-out: STAT6 degradation DC50
T1 construct: These cells express endogenous STAT6; host or cells: HeLa LgBiT clone 4.14
T1 sequence (P42226 1-847): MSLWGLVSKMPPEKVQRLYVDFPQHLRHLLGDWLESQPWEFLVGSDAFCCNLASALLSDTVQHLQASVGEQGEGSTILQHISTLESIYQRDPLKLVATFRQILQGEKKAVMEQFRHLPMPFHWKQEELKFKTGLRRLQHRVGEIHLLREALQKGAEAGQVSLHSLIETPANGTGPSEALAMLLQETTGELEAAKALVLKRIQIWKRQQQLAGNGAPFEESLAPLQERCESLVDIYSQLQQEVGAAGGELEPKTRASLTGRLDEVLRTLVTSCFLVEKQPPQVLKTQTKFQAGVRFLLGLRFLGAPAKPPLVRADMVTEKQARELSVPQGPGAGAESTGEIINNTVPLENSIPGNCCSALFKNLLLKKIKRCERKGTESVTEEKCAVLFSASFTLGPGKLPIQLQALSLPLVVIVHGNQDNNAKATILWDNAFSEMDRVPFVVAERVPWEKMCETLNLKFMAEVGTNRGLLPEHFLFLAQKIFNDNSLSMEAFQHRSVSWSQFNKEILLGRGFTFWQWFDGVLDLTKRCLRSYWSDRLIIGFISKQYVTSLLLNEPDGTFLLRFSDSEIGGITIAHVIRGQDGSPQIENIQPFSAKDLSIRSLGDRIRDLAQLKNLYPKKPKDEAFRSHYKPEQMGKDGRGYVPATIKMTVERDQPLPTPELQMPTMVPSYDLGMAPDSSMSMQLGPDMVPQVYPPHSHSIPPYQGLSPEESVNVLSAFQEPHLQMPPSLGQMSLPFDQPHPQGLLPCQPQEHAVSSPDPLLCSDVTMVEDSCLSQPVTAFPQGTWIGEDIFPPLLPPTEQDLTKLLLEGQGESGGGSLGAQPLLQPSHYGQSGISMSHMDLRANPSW
In short: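 Luminescence from HiBiT-STAT6 complementing stably expressed LgBiT in HeLa clone 4.14 reports remaining STAT6 protein. Cells (5000/well) exposed to compound for 4-24 h at 37° C; read 0.5 h after Nano-Glo addition. 100% degradation window set with 50 μM terfenadine; percent degradation plotted against concentration.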

[1] = system: Eotaxin-3 release in human whole blood stimulated with IL-4; test: Human Whole Blood Eotaxin-3 Assay (IL-4 stimulated eotaxin-3 release); format: cell-based; conditions: IL-4 stimulation, 48 h, values given for compounds with >80% Emax, geometric mean
In short: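 Eotaxin-3 (CCL26) release measured by MSD kit in plasma supernatant after 48 h IL-4 stimulation ([…]) of human whole blood. Compounds added in triplicate 4-fold dilutions 2 h before stimulation; 0.5% DMSO final, 37° C, 5% CO2.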

Compound	DC50 (STAT6) [nM]	EC50 [1] [nM]
CNc1ccn(-c2ccnc3c2cc(CN2CCC(c4c(F)cc(C(=O)N5CCC(CN6CCN(Cc7ccc8c(c7)C7(CC7)C(=O)N8C7CCC(=O)NC7=O)C[C@@H]6C)CC5)cc4F)CC2)n3C)c(=O)n1 (stereo partly drawn) [Example 3h12, 3-(5′-(((S)-4-((1-(3,5-difluoro-4-(1-((1-methyl-4-(4-(methylamino)-2-oxopyrimidin-1 (2H)-yl)-1H-pyrrolo[2,3-b]pyridin-2-yl)methyl)piperidin-4-yl)benzoyl)piperidin-4-yl)methyl)-3-methylpiperazin-1-yl)methyl)-2′-oxospiro[cyclopropane-1,3′-indolin]-1′-yl)piperidine-2,6-dione]	3.2	1.3
CNc1ccn(-c2ccnc3c2cc(CN2CC=C(c4c(F)cc(C(=O)N5CCC(CN6CCN(Cc7ccc8c(c7)n(C)c(=O)n8C7CCC(=O)NC7=O)C[C@@H]6C)CC5)cc4F)CC2)n3C)c(=O)c1 (stereo partly drawn) [Example 3u1, 3-(5-(((S)-4-((1-(3,5-difluoro-4-(1-((1-methyl-4-(4-(methylamino)-2-oxopyridin-1 (2H)-yl)-1H-pyrrolo[2,3-b]pyridin-2-yl)methyl)-1,2,3,6-tetrahydropyridin-4-yl)benzoyl)piperidin-4-yl)methyl)-3-methylpiperazin-1-yl)methyl)-3-methyl-2-oxo-2,3-dihydro-1H-benzo[d]imidazol-1-yl)piperidine-2,6-dione]	0.9	1
CNc1cc(=O)n(-c2ccnc3c2cc([C@H](C)N2CC=C(c4c(C)cc(C(=O)N5CCC(CN6CCN(Cc7ccc8c(c7)n(C)c(=O)n8C7CCC(=O)NC7=O)CC6)CC5)cc4F)CC2)n3C)cc1F (stereo partly drawn) [Example 3u13, 3-(5-((4-((1-(3-fluoro-4-(1-((S)-1-(4-(5-fluoro-4-(methylamino)-2-oxopyridin-1 (2H)-yl)-1-methyl-1H-pyrrolo[2,3-b]pyridin-2-yl)ethyl)-1,2,3,6-tetrahydropyridin-4-yl)-5-methylbenzoyl)-piperidin-4-yl)methyl)piperazin-1-yl)methyl)-3-methyl-2-oxo-2,3-dihydro-1H-benzo[d]imidazol-1-yl)piperidine-2,6-dione]	0.7	1
CNc1ccn(-c2ccnc3c2cc(CN2CCC(c4c(F)cc(C(=O)N5CCC(CN6CCN(Cc7ccc8c(c7)C(C)(C)C(=O)N8C7CCC(=O)NC7=O)CC6)CC5)cc4F)CC2)n3C)c(=O)c1 (stereo not shown) [Example 3u16, 3-(5-((4-((1-(3,5-difluoro-4-(1-((1-methyl-4-(4-(methylamino)-2-oxopyridin-1 (2H)-yl)-1H-pyrrolo[2,3-b]pyridin-2-yl)methyl)piperidin-4-yl)benzoyl)piperidin-4-yl)methyl)piperazin-1-yl)-methyl)-3,3-dimethyl-2-oxoindolin-1-yl)piperidine-2,6-dione]	11.2	12.1
CNc1cc(=O)n(-c2ccnc3c2cc([C@H](C)N2CC=C(c4c(C)cc(C(=O)N5CC=C(CC6CCN(c7ccc8c(c7)C7(CC7)C(=O)N8C7CCC(=O)NC7=O)CC6)CC5)cc4F)CC2)n3C)cc1F (stereo partly drawn) [Example 3u20, 3-(5′-(4-((1-(3-fluoro-4-(1-((S)-1-(4-(5-fluoro-4-(methylamino)-2-oxopyridin-1 (2H)-yl)-1-methyl-1H-pyrrolo[2,3-b]pyridin-2-yl)ethyl)-1,2,3,6-tetrahydropyridin-4-yl)-5-methyl-benzoyl)-1,2,3,6-tetrahydropyridin-4-yl)methyl)piperidin-1-yl)-2′-oxospiro[cyclopropane-1,3′-indolin]-1′-yl)piperidine-2,6-dione]	4.7	11.7
Cc1cc(C(=O)N2CCC(CN3CCN(Cc4ccc5c(c4)n(C)c(=O)n5C4CCC(=O)NC4=O)CC3)CC2)cc(F)c1C1=CCN([C@@H](C)c2cc3c(-n4ccc5c(c4=O)CCN5)ccnc3n2C)CC1 (stereo partly drawn) [Example 3u22, 3-(5-((4-((1-(3-fluoro-5-methyl-4-(1-((S)-1-(1-methyl-4-(4-oxo-1,2,3,4-tetrahydro-5H-pyrrolo[3,2-c]pyridin-5-yl)-1H-pyrrolo[2,3-b]pyridin-2-yl)ethyl)-1,2,3,6-tetrahydropyridin-4-yl)-benzoyl)piperidin-4-yl)methyl)piperazin-1-yl)methyl)-3-methyl-2-oxo-2,3-dihydro-1H-benzo[d]-imidazol-1-yl)piperidine-2,6-dione]	0.7	0.8

Continued by falling DC50 (STAT6), values first:

DC50 (STAT6) [nM]	EC50 [1] [nM]	Compound
3.8	4.9	CNc1cc(=O)n(-c2ccnc3c2cc([C@H](C)N2CC=C(c4c(F)cc(C(=O)N5CCC(CN6CCN(Cc7ccc8c(c7)C(C)(C)C(=O)N8C7CCC(=O)NC7=O)C[C@@H]6C)CC5)cc4F)CC2)n3C)cc1F (stereo partly drawn) [Example 3u9, 3-(5-(((S)-4-((1-(3,5-difluoro-4-(1-((S)-1-(4-(5-fluoro-4-(methylamino)-2-oxopyridin-1 (2H)-yl)-1-methyl-1H-pyrrolo[2,3-b]pyridin-2-yl)ethyl)-1,2,3,6-tetrahydropyridin-4-yl)benzoyl)-piperidin-4-yl)methyl)-3-methylpiperazin-1-yl)methyl)-3,3-dimethyl-2-oxoindolin-1-yl)piperidine-2,6-dione]
3.2	4.8	CNc1nc(=O)n(-c2ccnc3c2cc(CN2CCC(c4c(F)cc(C(=O)N5CCC(CN6CCN(Cc7ccc8c(c7)C7(CC7)C(=O)N8C7CCC(=O)NC7=O)C[C@@H]6C)CC5)cc4F)CC2)n3C)cc1F (stereo partly drawn) [Example 3h10, 3-(5′-(((S)-4-((1-(3,5-difluoro-4-(1-((4-(5-fluoro-4-(methylamino)-2-oxopyrimidin-1 (2H)-yl)-1-methyl-1H-pyrrolo[2,3-b]pyridin-2-yl)methyl)piperidin-4-yl)benzoyl)piperidin-4-yl)methyl)-3-methylpiperazin-1-yl)methyl)-2′-oxospiro[cyclopropane-1,3′-indolin]-1′-yl)piperidine-2,6-dione]
0.7	0.3	C[C@H]1CN(Cc2ccc3c(c2)n(C)c(=O)n3C2CCC(=O)NC2=O)CCN1CC1CCN(C(=O)c2ccc(C3CCN([C@@H](C)c4cc5c(-n6ccc7c(c6=O)CCN7)ccnc5n4C)CC3)cc2)CC1 (stereo partly drawn) [Example 3e44, 3-(3-methyl-5-(((S)-3-methyl-4-((1-(4-(1-((S)-1-(1-methyl-4-(4-oxo-1,2,3,4-tetrahydro-5H-pyrrolo[3,2-c]pyridin-5-yl)-1H-pyrrolo[2,3-b]pyridin-2-yl)ethyl)piperidin-4-yl)benzoyl)piperidin-4-yl)methyl)piperazin-1-yl)methyl)-2-oxo-2,3-dihydro-1H-benzo[d]imidazol-1-yl)piperidine-2,6-dione]
0.7	0.3	CNc1ccn(-c2ccnc3c2cc(CN2CCC(c4c(F)cc(C(=O)N5CCC(CN6CCN(Cc7ccc8c(c7)n(C)c(=O)n8C7CCC(=O)NC7=O)C[C@@H]6C)CC5)cc4F)CC2)n3C)c(=O)c1 (stereo partly drawn) [Example 3u19, 3-(5-(((S)-4-((1-(3,5-difluoro-4-(1-((1-methyl-4-(4-(methylamino)-2-oxopyridin-1 (2H)-yl)-1H-pyrrolo[2,3-b]pyridin-2-yl)methyl)piperidin-4-yl)benzoyl)piperidin-4-yl)methyl)-3-methyl-piperazin-1-yl)methyl)-3-methyl-2-oxo-2,3-dihydro-1H-benzo[d]imidazol-1-yl)piperidine-2,6-dione]
0.5	0.5	CNc1ccn(-c2ccnc3c2cc([C@H](C)N2CCC(c4ccc(C(=O)N5CCC(CN6CCN(Cc7ccc8c(c7)n(C)c(=O)n8C7CCC(=O)NC7=O)C[C@@H]6C)CC5)cc4)CC2)n3C)c(=O)c1 (stereo partly drawn) [Example 3e39, 3-(3-methyl-5-(((S)-3-methyl-4-((1-(4-(1-((S)-1-(1-methyl-4-(4-(methylamino)-2-oxopyridin-1 (2H)-yl)-1H-pyrrolo[2,3-b]pyridin-2-yl)ethyl)piperidin-4-yl)benzoyl)piperidin-4-yl)methyl)piperazin-1-yl)methyl)-2-oxo-2,3-dihydro-1H-benzo[d]imidazol-1-yl)piperidine-2,6-dione]

Reference: patent US20250320206A1, “STAT6 DEGRADERS” (Gilead Sciences, Inc., priority 2024, published 2025)
